In assay [1] the test system is Beta-TC-6 cells. As to the kind of experiment: Insulin release enhancement in insulinoma cell line Beta-TC-6 (Assay 1). The format is cell-based, mouse. How it is done:
Assay I: Insulin release enhancement by TRPM5 inhibitors was tested by the following procedure. Beta-TC-6 cells are an insulin-secreting cell line derived from transgenic mice expressing the large T-antigen of simian virus 40 (SV40) in pancreatic beta-cells as described by Poitout et al., Diabetes, 44:306-313 (1995). The cell line was obtained from ATCC cell bank CAT# CRL-11506 and grown in Dulbecco's Modified Eagle's Medium (DMEM) with 15% fetal bovine serum (FBS), 4 mM glutamine, 4.5 g/L glucose, 110 mg/L sodium pyruvate and 1× penn/strep antibiotic mix in a 37° C. incubator with 5% CO2. Cultures were routinely split 1:2 twice a week with the aid of trypsin.
The day before the assay 0.15×10^6 Beta-TC-6 cells were plated into each well of 96 well plates (Greiner bio-one V-bottom, Cat#: 651 180). The cells were spun at 1200 rpm for 5 min and cultured overnight. […] Insulin release in the supernatant was assessed using a commercially available ELISA kit (Mercodia Cat#: 10-1149-10) according to the manufacturer's protocol. The data were expressed as pg of insulin per number of cells. […]

Assay [2] deals with GLUTag cells. The assay can be described thus: GLP-1 release using GLUTag cells (Assay 1). Format: cell-based, mouse. As for the experimental part: Mouse GLUTag cells are a native intestinal cell line which expresses TRPM5. The cell line was obtained from Dr. Daniel J. Drucker in the Division of Endocrinology, Department of Medicine, at University of Toronto, and grown in Invitrogen Dulbecco's Modified Eagle's Medium (DMEM) high glucose (Cat#: 11995) with 10% fetal bovine serum (FBS) and 1× penn/strep antibiotic mix in a 37° C. incubator with 5% CO2.
Assay 1: All reagents and media were pre-warmed to room temperature prior to the beginning of the experiment.
Seeding of Cell Plate: BD 96-well Matrigel-coated plates (Fisher, Cat #: 08-774-166) were rehydrated using 100 μL of plating media (Invitrogen Cat #: 31985) OPTI-Modified Eagle's Medium (MEM) with 10% FBS and 1× penn/strep antibiotic mix and incubated for 30 minutes in a 37° C. incubator and 5% CO2. The rehydration media was aspirated and GLUTag cells were plated at 100 ul per well at a density of 7.5×10^5 cells/ml. The plates were then incubated overnight in a 37° C. incubator and 5% CO2.
The following protocol utilized the Millipore GLP-1 ELISA Kit (Cat. #: EGLP-35K) to analyze GLP-1 secretion from GLUTag cells in the presence of TRPM5 inhibitors/enhancers and glucose.
ELISA Assay Day 1: Stock solutions and dilution plates of TRPM5 inhibitors or enhancers were prepared. […]

Consider `Cc1cc(/C=N/NC(=O)C2CC2c2ccccc2)cc2cccnc12` (racemic) [Example 10, trans-N′-((8-Methylquinolin-6-yl)methylene)-2-phenylcyclopropanecarbohydrazide], for which the insulin secretion entry is reported as “does not occur” in assay [1] (Beta-TC-6, in the presence of 0.3 mM glucose) and “dose-dependent increase of insulin secretion” in assay [1] (Beta-TC-6, in the presence of 1 mM glucose). Besides, the figures for the GLP-1 secretion entry in assay [2] (in the presence of 0.1 mM glucose) and in assay [2] (in the presence of 0.3 mM glucose) were “is not observed” and “dose-dependent increase of GLP-1 secretion”, respectively.

Source of the values: patent US20110033393A1, “Hydrazone Compounds and Their Use” (priority 2009, published 2011).
